Reference: the supplement of paper PMC4862054

Legend:
Details in all cases: incubation time: 72 h
BT-474 [1] = assay: normalised response (% of control), CellTox Green; higher = less cell death (100 = DMSO, 0 = benzethonium chloride kill control)
Summary of the method: (§1)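 In 384-well plates holding compound at 5 concentrations in 10-fold steps over a 10,000-fold range specific to each compound, breast cancer cell lines were seeded as 20 µl suspension and incubated 72 h. CellTox Green fluorescence was measured at 485/520 nm, after which CellTiter-Glo luminescence was measured following 10 min at room temperature. Plate signals were normalised to 0.1 % DMSO (100) and a positive kill control (0), and each value is the normalised signal at a single concentration.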

BT-549 [2] = assay: as above
Summary of the method: as §1

CAL-120 [3] = assay: as above
Summary of the method: as §1

CAL-51 [4] = assay: as above
Summary of the method: as §1

CAL-85-1 [5] = assay: as above
Summary of the method: as §1

DU-4475 [6] = assay: as above
Summary of the method: as §1

HCC1143 [7] = assay: as above
Summary of the method: as §1

HCC1599 [8] = assay: as above
Summary of the method: as §1

HCC1937 [9] = assay: as above
Summary of the method: as §1

HDQ-P1 [10] = assay: as above
Summary of the method: as §1

Hs578T [11] = assay: as above
Summary of the method: as §1

MCF-10A [12] = assay: as above
Summary of the method: as §1

MDA-MB-231 [13] = assay: as above
Summary of the method: as §1

MDA-MB-436 [14] = assay: as above
Summary of the method: as §1

MDA-MB-453 [15] = assay: as above
Summary of the method: as §1

MFM-223 [16] = assay: as above
Summary of the method: as §1

BT-474 [17] = assay: normalised response (% of control), CellTiter-Glo; higher = more viable cells (100 = DMSO, 0 = benzethonium chloride kill control)
Summary of the method: as §1

BT-549 [18] = assay: as above
Summary of the method: as §1

CAL-120 [19] = assay: as above
Summary of the method: as §1

CAL-148 [20] = assay: as above
Summary of the method: as §1

CAL-51 [21] = assay: as above
Summary of the method: as §1

CAL-85-1 [22] = assay: as above
Summary of the method: as §1

DU-4475 [23] = assay: as above
Summary of the method: as §1

HCC1143 [24] = assay: as above
Summary of the method: as §1

HCC1599 [25] = assay: as above
Summary of the method: as §1

HCC1937 [26] = assay: as above
Summary of the method: as §1

HDQ-P1 [27] = assay: as above
Summary of the method: as §1

Hs578T [28] = assay: as above
Summary of the method: as §1

MCF-10A [29] = assay: as above
Summary of the method: as §1

MDA-MB-231 [30] = assay: as above
Summary of the method: as §1

MDA-MB-436 [31] = assay: as above
Summary of the method: as §1

MDA-MB-453 [32] = assay: as above
Summary of the method: as §1

MDA-MB-468 = assay: as above
Summary of the method: as §1

MFM-223 [33] = assay: as above
Summary of the method: as §1

SK-BR-3 = assay: as above
Summary of the method: as §1

CAL-148 [34] = assay: normalised response (% of control), CellTox Green; higher = less cell death (100 = DMSO, 0 = benzethonium chloride kill control)
Summary of the method: as §1

Row | SMILES | normalised response (BT-474 [1]) [%] | normalised response (BT-549 [2]) [%] | normalised response (CAL-120 [3]) [%] | normalised response (CAL-51 [4]) [%] | normalised response (CAL-85-1 [5]) [%] | normalised response (DU-4475 [6]) [%] | normalised response (HCC1143 [7]) [%] | normalised response (HCC1599 [8]) [%] | normalised response (HCC1937 [9]) [%] | normalised response (HDQ-P1 [10]) [%] | normalised response (Hs578T [11]) [%] | normalised response (MCF-10A [12]) [%] | normalised response (MDA-MB-231 [13]) [%] | normalised response (MDA-MB-436 [14]) [%] | normalised response (MDA-MB-453 [15]) [%] | normalised response (MFM-223 [16]) [%] | normalised response (BT-474 [17]) [%] | normalised response (BT-549 [18]) [%] | normalised response (CAL-120 [19]) [%] | normalised response (CAL-148 [20]) [%] | normalised response (CAL-51 [21]) [%] | normalised response (CAL-85-1 [22]) [%] | normalised response (DU-4475 [23]) [%] | normalised response (HCC1143 [24]) [%] | normalised response (HCC1599 [25]) [%] | normalised response (HCC1937 [26]) [%] | normalised response (HDQ-P1 [27]) [%] | normalised response (Hs578T [28]) [%] | normalised response (MCF-10A [29]) [%] | normalised response (MDA-MB-231 [30]) [%] | normalised response (MDA-MB-436 [31]) [%] | normalised response (MDA-MB-453 [32]) [%] | normalised response (MDA-MB-468) [%] | normalised response (MFM-223 [33]) [%] | normalised response (SK-BR-3) [%] | normalised response (CAL-148 [34]) [%]
1 | O=C(O)c1ccc(-c2c[nH]c3ncc(-c4ccccc4)cc23)cc1C1CCCC1 (1000 nM) | 95.8 | 92.9 | 98.4 | 93.6 | 108 | 96.3 | 96.2 | 90.9 | 100 | 109 | 92.2 | 103 | 86.1 | 85.1 | 96.7 | 93.1 | 89.9 | 100 | 102 | 95.6 | 105 | 99.2 | 91.4 | 101 | 102 | 97 | 105 | 94.1 | 100 | 92.4 | 103 | 96.8 | 93.6 | 95.6 | 90.2 | –
2 | CCCCCCCCCCCCCCCCCCOP(=O)([O-])OC1CC[N+](C)(C)CC1 [Perifosine] (250 nM) | 100 | 88.6 | 106 | 110 | 107 | 101 | 118 | 97.8 | 107 | 115 | 97.2 | 102 | 79.8 | 94.7 | 104 | 59.2 | 102 | 97 | 104 | 97.7 | 116 | 95.4 | 96.5 | 104 | 101 | 101 | 105 | 104 | 110 | 102 | 99.3 | 98.2 | 99.7 | 93.7 | 97.7 | 93.9
3 | C[C@]12CC[C@@H]3c4ccc(O)cc4C[C@@H](CCCCCCCCC[S+]([O-])CCCC(F)(F)C(F)(F)F)[C@H]3[C@@H]1CC[C@@H]2O (stereo partly drawn) [Fulvestrant] (100 nM) | 102 | 106 | 100 | 113 | 108 | 101 | 111 | 101 | 106 | – | 103 | 105 | 114 | 108 | 87.5 | 90.7 | 104 | 108 | 100 | 97.4 | 114 | 99.1 | 104 | 99.3 | 110 | 105 | 104 | 106 | 109 | 104 | 108 | 109 | 104 | 103 | 107 | 100
4 | N#CCNC(=O)c1ccc(-c2ccnc(Nc3ccc(N4CCOCC4)cc3)n2)cc1 [Momelotinib] (1 nM) | – | – | – | – | – | – | – | – | – | – | – | – | – | – | – | – | 89.8 | 95.1 | 96.9 | 94.2 | 128 | 94.6 | 95.3 | 97.6 | 94.7 | 97.7 | 100 | 97.2 | 90.4 | 97.2 | 97.8 | 91.9 | 98.2 | 92.3 | 95.8 | –
5 | N.N.[Cl][Pt][Cl] [Cisplatin] (0.1 nM) | – | – | – | – | – | – | – | – | – | – | – | – | – | – | – | – | 101 | 106 | 102 | 85.7 | 115 | 97.2 | 92 | 95.2 | 110 | 101 | 101 | 102 | 103 | 99.7 | 98.2 | 98.9 | 97.3 | 96.9 | 98.6 | –
6 | COc1cc2ncnc(Nc3ccc(F)c(Cl)c3)c2cc1NC(=O)/C=C/CN1CCCCC1 [Dacomitinib] (0.1 nM) | – | – | – | – | – | – | – | – | – | – | – | – | – | – | – | – | 99 | 102 | 94 | 109 | 71.8 | 97.5 | 95.3 | 107 | 93.7 | 104 | 99.8 | 98.5 | 101 | 102 | 102 | 99.9 | 101 | 102 | 99.6 | –
